In patent US20110104055A1, “SUBSTITUTED N-ARYL BENZAMIDES AND RELATED COMPOUNDS FOR TREATMENT OF AMYLOID DISEASES AND SYNUCLEINOPATHIES” (priority 2002, published 2011):

Assays:
Type in all cases: biochemical
Aβ 1-42 fibrils [1] = target: T1, Aβ 1-42 fibrils (Homo sapiens, UniProt P05067); experiment: Thioflavin T fluorometry, disruption of pre-formed Aβ 1-42 fibrils (Example 11); conditions: 30 μg pre-fibrillized Aβ 1-42, 37° C., 3 days
T1 construct: purchased Bachem Inc
Text: In one study, Thioflavin T fluorometry was used to determine the effects of the compounds, and of EDTA (as a negative control). In this assay Thioflavin T binds specifically to fibrillar amyloid, and this binding produces a fluorescence enhancement at 485 nm that is directly proportional to the amount of amyloid fibrils formed. The higher the fluorescence, the greater the amount of amyloid fibrils formed (Naki et al., Lab. Invest. 65:104-110, 1991; Levine III, Protein Sci. 2:404-410, 1993; Amyloid: Int. J. Exp. Clin. Invest. 2:1-6, 1995).
(§1) Following 3-days of co-incubation, 50 μl of each incubation mixture was transferred into a 96-well microtiter plate containing 150 μl of distilled water and 50 μl of a Thioflavin T solution (i.e. 500 mM Thioflavin T in 250 mM phosphate buffer, pH 6.8). The fluorescence was read at 485 nm (444 nm excitation wavelength) using an ELISA plate fluorometer after subtraction with buffer alone or compound alone, as blank.

Aβ 1-42 fibrils [2] = target: T1, Aβ 1-42 fibrils; experiment: Congo red binding assay, Aβ 1-42 fibrils (Example 11); conditions: 3-day incubation
Method: (§2) In the Congo red binding assay, the ability of a test compound to alter amyloid (in this case, Aβ) binding to Congo red is quantified. In this assay, Aβ 1-42 and test compounds were incubated for 3 days and then vacuum filtered through a 0.2 μm filter. The amount of Aβ 1-42 retained in the filter was then quantitated following staining of the filter with Congo red. After appropriate washing of the filter, any lowering of the Congo red color on the filter in the presence of the test compound (compared to the Congo red staining of the amyloid protein in the absence of the test compound) was indicative of the test compound's ability to diminish/alter the amount of aggregated and congophilic Aβ.
In one study, the ability of Aβ fibrils to bind Congo red in the absence or presence of increasing amounts of the compounds or EDTA (at Aβ:test compound weight ratios of 1:1, 1:0.1, 1:0.01 or 1:0.001) was determined.

α-synuclein fibrils [3] = target: T2, α-synuclein fibrils (Homo sapiens, UniProt P37840); experiment: Thioflavin T fluorometry, disruption of pre-formed α-synuclein fibrils (Example 12); conditions: 3 days; for disruption/disassembly of pre-formed α-synuclein fibrils, in words: Thioflavin T fluorometry, all concentrations tested; for % Inhibition α-synuclein (result ± S.D.), Thioflavin T fluorometry: 30 μg pre-fibrillized α-synuclein, 37° C.
T2 construct: purchased rPeptide
Method: In this assay, Thioflavin T binds specifically to α-synuclein fibrils, and this binding produces a fluorescence enhancement at 485 nm that is directly proportional to the amount of α-synuclein fibrils present. The higher the fluorescence, the greater the amount of α-synuclein fibrils present (Naki et al, Lab. Invest. 65:104-110, 1991; Levine III, Protein Sci. 2:404-410, 1993; Amyloid: Int. J. Exp. Clin. Invest. 2:1-6, 1995).
as §1, with “In this study, 30 μg of pre-fibrillized α-synuclein (rPeptide) was incubated at 37° C. for 3 days either alone or in the presence of compounds DC-0051-F1, F2, F3, F4, F5, F6 or EDTA (at α-synuclein:test compound weight ratios of 1:1, 1:0.1, 1:0.01 or 1:0.001). Following” for “Following”

α-synuclein fibrils [4] = target: T2, α-synuclein fibrils; experiment: Congo red binding assay, α-synuclein fibrils (Example 12); conditions: 3-day incubation
Method: as §2, with “of a given test compound” for “of a test compound”, “this case, α-synuclein) binding to” for “this case, Aβ) binding to”, “this assay, α-synuclein and test” for “this assay, Aβ 1-42 and test”, “amount of α-synuclein retained in” for “amount of Aβ 1-42 retained in”, “and congophilic α-synuclein.” for “and congophilic Aβ.”
In one study, the ability of α-synuclein fibrils to bind Congo red in the absence or presence of increasing amounts of compounds DC-0051-F1, F2, F3, F4, F5, F6 and EDTA (at α-synuclein:test compound weight ratios of 1:1, 1:0.1, 1:0.01 or 1:0.001) was determined.

[5] = Aβ:test compound wt/wt ratio 1:0.001
[6] = Aβ:test compound wt/wt ratio 1:0.01
[7] = Aβ:test compound wt/wt ratio 1:0.1
[8] = Aβ:test compound wt/wt ratio 1:1
[9] = α-synuclein:test compound wt/wt ratio 1:0.001
[10] = α-synuclein:test compound wt/wt ratio 1:0.01
[11] = α-synuclein:test compound wt/wt ratio 1:0.1
[12] = α-synuclein:test compound wt/wt ratio 1:1

T1 sequence (P05067 672-713): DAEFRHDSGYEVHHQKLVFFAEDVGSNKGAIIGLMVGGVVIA

Row | Compound | % Inhibition Aβ (result ± S.D.), Thioflavin T fluorometry (Aβ 1-42 fibrils [1]; [5]) [%] | % Inhibition Aβ (result ± S.D.), Thioflavin T fluorometry (Aβ 1-42 fibrils [1]; [6]) [%] | % Inhibition Aβ (result ± S.D.), Thioflavin T fluorometry (Aβ 1-42 fibrils [1]; [7]) [%] | % Inhibition Aβ (result ± S.D.), Thioflavin T fluorometry (Aβ 1-42 fibrils [1]; [8]) [%] | % Inhibition Aβ (result ± S.D.), Congo red binding (Aβ 1-42 fibrils [2]; [5]) [%] | % Inhibition Aβ (result ± S.D.), Congo red binding (Aβ 1-42 fibrils [2]; [6]) [%] | % Inhibition Aβ (result ± S.D.), Congo red binding (Aβ 1-42 fibrils [2]; [7]) [%] | % Inhibition Aβ (result ± S.D.), Congo red binding (Aβ 1-42 fibrils [2]; [8]) [%] | disruption/disassembly of pre-formed α-synuclein fibrils, in words (α-synuclein fibrils [3]) | % Inhibition α-synuclein (result ± S.D.), Thioflavin T fluorometry (α-synuclein fibrils [3]; [9]) [%] | % Inhibition α-synuclein (result ± S.D.), Thioflavin T fluorometry (α-synuclein fibrils [3]; [10]) [%] | % Inhibition α-synuclein (result ± S.D.), Thioflavin T fluorometry (α-synuclein fibrils [3]; [11]) [%] | % Inhibition α-synuclein (result ± S.D.), Thioflavin T fluorometry (α-synuclein fibrils [3]; [12]) [%] | % Inhibition α-synuclein (result ± S.D.), Congo red binding (α-synuclein fibrils [4]; [9]) [%] | % Inhibition α-synuclein (result ± S.D.), Congo red binding (α-synuclein fibrils [4]; [10]) [%] | % Inhibition α-synuclein (result ± S.D.), Congo red binding (α-synuclein fibrils [4]; [11]) [%] | % Inhibition α-synuclein (result ± S.D.), Congo red binding (α-synuclein fibrils [4]; [12]) [%]
1 | O=C(Nc1ccc(O)c(O)c1F)c1ccc(O)c(O)c1 [DC-0051-F6, N-(2-fluoro-3,4-dihydroxyphenyl)-3,4-dihydroxybenzamide] | 9.6 ± 0.96 | 36.8 ± 3.43 | 88.0 ± 1.09 | 99.4 ± 0.86 | 3.7 ± 3.24 | 6.8 ± 1.51 | 18.3 ± 5.32 | 68.0 ± 2.11 | dose-dependent disruption/disassembly | 4.2 ± 5.02 | 56.2 ± 1.49 | 94.7 ± 0.68 | 100.0 ± 1.98 | 0.0 ± 4.20 | 1.4 ± 5.69 | 29.9 ± 2.41 | 59.8 ± 3.62
2 | O=C(Nc1ccc(O)c(O)c1)c1ccc(O)c(O)c1F [DC-0051-F1, 3,4-Dihydroxy-2-fluoro-N-(3,4-dihydroxyphenyl)benzamide] | 15.6 ± 2.01 | 37.1 ± 1.44 | 91.3 ± 1.39 | 98.7 ± 0.38 | 3.7 ± 4.36 | 2.2 ± 7.70 | 27.5±2.39 | 80.1±2.61 | dose-dependent disruption/disassembly | 13.7 ± 6.06 | 58.4 ± 5.06 | 90.4 ± 2.07 | 100.0 ± 3.14 | 0.0 ± 3.42 | 3.8 ± 5.82 | 32.9±2.97 | 69.8±2.67
3 | O=C(Nc1cc(O)c(O)c(F)c1)c1ccc(O)c(O)c1 [DC-0051-F4, N-(3-fluoro-4,5-dihydroxyphenyl)-3,4-dihydroxybenzamide] | 16.0 ± 6.64 | 33.4 ± 2.09 | 79.8 ± 0.77 | 99.7 ± 0.58 | 4.3 ± 11.81 | 8.8 ± 5.07 | 10.9 ± 5.05 | 71.0 ± 2.39 | dose-dependent disruption/disassembly | 6.1 ± 9.44 | 40.6 ± 1.49 | 94.3 ± 1.22 | 100.0 ± 2.84 | 6.1 ± 8.92 | 0.0 ± 3.44 | 18.0 ± 0.58 | 64.8 ± 5.08
